The values below come from patent publication US10183950B2, “Thienopyrimidine inhibitors of atypical protein kinase C” (Cancer Research Technology Limited, priority 2011, dated 2019).

The target in the assay is T1, full-length human PKCι (Homo sapiens, UniProt P41743).
T1 construct: Recombinant, full-length human PKCι expressed in Sf21 insect cells is also commercially available; purchased; host or cells: Sf21 insect cells
T1 sequence (P41743 1-596): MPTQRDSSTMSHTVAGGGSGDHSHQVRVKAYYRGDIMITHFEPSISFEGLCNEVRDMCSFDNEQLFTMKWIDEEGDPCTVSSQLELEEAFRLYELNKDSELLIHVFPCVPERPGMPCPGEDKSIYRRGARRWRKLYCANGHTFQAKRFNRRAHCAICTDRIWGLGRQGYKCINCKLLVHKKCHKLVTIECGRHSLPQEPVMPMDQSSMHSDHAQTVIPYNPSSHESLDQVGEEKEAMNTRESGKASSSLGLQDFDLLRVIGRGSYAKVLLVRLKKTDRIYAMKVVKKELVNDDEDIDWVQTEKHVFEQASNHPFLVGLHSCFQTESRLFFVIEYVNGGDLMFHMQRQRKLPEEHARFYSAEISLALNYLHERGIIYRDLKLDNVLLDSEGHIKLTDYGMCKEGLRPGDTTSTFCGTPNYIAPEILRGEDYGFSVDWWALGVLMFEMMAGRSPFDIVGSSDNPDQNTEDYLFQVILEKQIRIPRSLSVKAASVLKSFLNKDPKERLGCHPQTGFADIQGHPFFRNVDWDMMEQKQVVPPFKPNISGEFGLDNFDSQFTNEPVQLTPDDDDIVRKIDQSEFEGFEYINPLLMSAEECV
The experiment in a line: PKCι IC50 IMAP fluorescence polarisation assay, full-length enzyme. The format is biochemical. The note with it: full length PKCi at 15 μM ATP; read-out: IC50 in IMAP assay against full length PKCi. A general note: In fluorescence polarisation assays a small probe gives low polarisation when free and higher when bound to something large.
Usually IC50 stands for the concentration at which inhibition is half-maximal. Take `F[C@H]1CN(Cc2ccccc2)C[C@@H]1Nc1nc(-c2ccncc2)nc2ccsc12` [compound 315, ((3S,4S)-1-Benzyl-4-fluoro-pyrrolidin-3-yl)-(2-pyridin-4-yl-thieno[3,2-d]pyrimidin-4-yl)-amine]: the half-maximal inhibitory concentration (IC50) fell in the range of 10 to 40 µM.

On to `c1cc(-c2nc(N[C@@H]3CCCNC3)c3sccc3n2)ccn1` [compound 316, (R)-Piperidin-3-yl-(2-pyridin-4-yl-thieno[3,2-d]pyrimidin-4-yl)-amine], for which the half-maximal inhibitory concentration (IC50) was in the range of 1 to 10 µM.

Regarding `c1cc(-c2nc(N[C@@H]3CCNC3)c3sccc3n2)ccn1` [compound 317, (2-Pyridin-4-yl-thieno[3,2-d]pyrimidin-4-yl)-(R)-pyrrolidin-3-yl-amine], the IC50 was 1 to 10 µM.

Take `N[C@@H]1CCN(c2nc(-c3ccncc3)nc3ccsc23)C1` [compound 318, (R)-1-(2-Pyridin-4-yl-thieno[3,2-d]pyrimidin-4-yl)-pyrrolidin-3-ylamine]: the half-inhibitory concentration (IC50) was 10 to 40 µM.

On to `O[C@H]1CNC[C@@H]1Nc1nc(-c2ccncc2)nc2ccsc12` [compound 319, (3S,4S)-4-(2-Pyridin-4-yl-thieno[3,2-d]pyrimidin-4-ylamino)-pyrrolidin-3-ol], for which the IC50 was 1 to 10 µM.

With `NC(=O)CN1CC[C@@H](Nc2nc(-c3ccncc3)nc3ccsc23)C1` [compound 320, 2-[(R)-3-(2-Pyridin-4-yl-thieno[3,2-d]pyrimidin-4-ylamino)-pyrrolidin-1-yl]-acetamide], the half-maximal inhibitory concentration (IC50) was 10 to 40 µM.

As to `F[C@@H]1CNC[C@@H]1Nc1nc(-c2ccncc2)nc2ccsc12` [compound 321, ((3S,4R)-4-Fluoro-pyrrolidin-3-yl)-(2-pyridin-4-yl-thieno[3,2-d]pyrimidin-4-yl)-amine], the IC50 is 10 to 40 µM.

For `Clc1cnccc1-c1nc(N[C@@H]2CCNC2)c2sccc2n1` [compound 322, [2-(3-Chloro-pyridin-4-yl)-thieno[3,2-d]pyrimidin-4-yl]-(R)-pyrrolidin-3-yl-amine], the 50% inhibitory concentration (IC50) lay within 1 to 10 µM.

Consider `N[C@H](CNc1nc(-c2ccncc2Cl)nc2ccsc12)Cc1ccccc1` [compound 323, (S)-N*1*-[2-(3-Chloro-pyridin-4-yl)-thieno[3,2-d]pyrimidin-4-yl]-3-phenyl-propane-1,2-diamine], for which the IC50 is 1 to 10 µM.

`CC(C)(C)c1cc2nc(-c3ccncc3)nc(NC[C@@H](N)Cc3ccccc3)c2s1` [compound 324, (S)-N*1*-(6-tert-Butyl-2-pyridin-4-yl-thieno[3,2-d]pyrimidin-4-yl)-3-phenyl-propane-1,2-diamine]: the IC50 lay within 10 to 40 µM.

Regarding `Cc1sc2c(NC[C@@H](N)Cc3ccccc3)nc(-c3ccncc3)nc2c1C` [compound 325, (S)-N*1*-(6,7-Dimethyl-2-pyridin-4-yl-thieno[3,2-d]pyrimidin-4-yl)-3-phenyl-propane-1,2-diamine], the concentration for half-maximal inhibition (IC50) lay in the range of 0.1 to 1 µM.

Turning to `N[C@H](CNc1nc(-c2ccncc2)nc2c(-c3ccc(Br)cc3)csc12)Cc1ccccc1` [compound 326, (S)-N*1*-[7-(4-Bromo-phenyl)-2-pyridin-4-yl-thieno[3,2-d]pyrimidin-4-yl]-3-phenyl-propane-1,2-diamine], the half-maximal inhibitory concentration (IC50) is 1 to 10 µM.

As for `N[C@@H](CNc1nc(-c2ccncc2)nc2c(-c3ccc(Br)cc3)csc12)Cc1ccccc1` [compound 327, (R)-N*1*-[7-(4-Bromo-phenyl)-2-pyridin-4-yl-thieno[3,2-d]pyrimidin-4-yl]-3-phenyl-propane-1,2-diamine], the 50% inhibitory concentration (IC50) fell in the range of 1 to 10 µM.

For the molecule `Cc1sc2c(N[C@@H]3CCNC3)nc(-c3ccncc3)nc2c1Br` [compound 328, (7-Bromo-6-methyl-2-pyridin-4-yl-thieno[3,2-d]pyrimidin-4-yl)-(R)-pyrrolidin-3-yl-amine], the IC50 was in the range of 0.1 to 1 µM.

Take `Cc1sc2c(NC[C@H](N)Cc3ccccc3)nc(-c3ccncc3)nc2c1Br` [compound 329, (R)-N*1*-(7-Bromo-6-methyl-2-pyridin-4-yl-thieno[3,2-d]pyrimidin-4-yl)-3-phenyl-propane-1,2-diamine]: the IC50 was in the range of 1 to 10 µM.

`Cc1sc2c(NC[C@H](C)N)nc(-c3ccncc3)nc2c1Br` [compound 331, (S)-N*1*-(7-Bromo-6-methyl-2-pyridin-4-yl-thieno[3,2-d]pyrimidin-4-yl)-propane-1,2-diamine]: the half-inhibitory concentration (IC50) fell in the range of 1 to 10 µM.

Take `Cc1sc2c(N[C@H]3CCNC3)nc(-c3ccncc3)nc2c1Br` [compound 332, (7-Bromo-6-methyl-2-pyridin-4-yl-thieno[3,2-d]pyrimidin-4-yl)-(S)-pyrrolidin-3-yl-amine]: the IC50 was 1 to 10 µM.

Turning to `CC(C)(C)c1sc2c(NCCN)nc(-c3ccncc3)nc2c1Br` [compound 333, N*1*-(7-Bromo-6-tert-butyl-2-pyridin-4-yl-thieno[3,2-d]pyrimidin-4-yl)-ethane-1,2-diamine], the concentration for half-maximal inhibition (IC50) is 10 to 40 µM.

Take `CC(C)(C)c1sc2c(NC[C@@H](N)Cc3ccccc3)nc(-c3ccncc3)nc2c1Br` [compound 334, (S)-N*1*-(7-Bromo-6-tert-butyl-2-pyridin-4-yl-thieno[3,2-d]pyrimidin-4-yl)-3-phenyl-propane-1,2-diamine]: the concentration for half-maximal inhibition (IC50) was 1 to 10 µM.

As for `CC(C)(C)c1sc2c(NC[C@H](N)Cc3ccccc3)nc(-c3ccncc3)nc2c1Br` [compound 335, (R)-N*1*-(7-Bromo-6-tert-butyl-2-pyridin-4-yl-thieno[3,2-d]pyrimidin-4-yl)-3-phenyl-propane-1,2-diamine], the IC50 lay in the range of 10 to 40 µM.

As for `N[C@H](CNc1nc(-c2ccncc2)nc2c(Br)csc12)Cc1ccccc1` [compound 336, (S)—N*1*-(7-Bromo-2-pyridin-4-yl-thieno[3,2-d]pyrimidin-4-yl)-3-phenyl-propane-1,2-diamine], the IC50 was less than 0.1 µM.

In the case of `Cc1c(Br)sc2c(NC[C@@H](N)Cc3ccccc3)nc(-c3ccncc3)nc12` [compound 337, (S)-N*1*-(6-Bromo-7-methyl-2-pyridin-4-yl-thieno[3,2-d]pyrimidin-4-yl)-3-phenyl-propane-1,2-diamine], the IC50 lay within 0.1 to 1 µM.

For `NC(=O)CNc1nc(-c2ccncc2)nc2c(Br)csc12` [compound 338, 2-(7-Bromo-2-pyridin-4-yl-thieno[3,2-d]pyrimidin-4-ylamino)-acetamide], the concentration for half-maximal inhibition (IC50) was in the range of 10 to 40 µM.

With `CN(C)CCNc1nc(-c2ccncc2)nc2c(Br)csc12` [compound 339, N′-(7-Bromo-2-pyridin-4-yl-thieno[3,2-d]pyrimidin-4-yl)-N,N-dimethyl-ethane-1,2-diamine], the IC50 was 10 to 40 µM.

For `Cc1c(Br)sc2c(N[C@@H]3CCNC3)nc(-c3ccncc3)nc12` [compound 340, (6-Bromo-7-methyl-2-pyridin-4-yl-thieno[3,2-d]pyrimidin-4-yl)-(R)-pyrrolidin-3-yl-amine], the concentration for half-maximal inhibition (IC50) lay within 0.1 to 1 µM.

As for `Brc1csc2c(NC[C@@H]3CCCN3)nc(-c3ccncc3)nc12` [compound 341, (7-Bromo-2-pyridin-4-yl-thieno[3,2-d]pyrimidin-4-yl)-(S)-1-pyrrolidin-2-ylmethyl-amine], the IC50 fell in the range of 10 to 40 µM.

As for `Brc1csc2c(NC[C@H]3CCCN3)nc(-c3ccncc3)nc12` [compound 342, (7-Bromo-2-pyridin-4-yl-thieno[3,2-d]pyrimidin-4-yl)-(R)-1-pyrrolidin-2-ylmethyl-amine], the IC50 fell in the range of 10 to 40 µM.

Regarding `Brc1csc2c(N[C@@H]3CCCNC3)nc(-c3ccncc3)nc12` [compound 343, (7-Bromo-2-pyridin-4-yl-thieno[3,2-d]pyrimidin-4-yl)-(R)-piperidin-3-yl-amine], the half-maximal inhibitory concentration (IC50) is 0.1 to 1 µM.
